In patent publication US7452691B2, “Device and method for detecting antibiotic inactivating enzymes” (priority 2005, dated 2008):
In brackets after ≈: the same amount, converted by molar mass. Like-named read-outs stand apart in the source and are kept apart here.

Columns and labels:
[1] = target: OXA-3 (Pseudomonas aeruginosa, UniProt Q51429); test: Indirect reagent disk test, antibiotic inactivation; assay type: cell-based; conditions: enzyme OXA-3; indirect method
[2] = target: PSE-1 (Pseudomonas aeruginosa, UniProt Q03170); test: as above; assay type: cell-based; conditions: enzyme PSE-1; indirect method
Source text: (§1) • 1. […] Performing and Interpreting the Test • 1.

[3] = target: L-1 (Stenotrophomonas maltophilia, UniProt P52700); test: as above; assay type: cell-based; conditions: enzyme L-1; indirect method; further: key: P, positive; N, negative; WP, weak positive (slight flattening); ?, results were questionable
Source text: as §1

[4] = test system: OXA-6; test: as above; assay type: cell-based; conditions: enzyme OXA-6; indirect method
Procedure: (§3) The indirect method was performed essentially as described in Example 4, except the antibiotic disks were as indicated. An indentation of a zone of inhibition around the antibiotic dish was interpreted as positive for presence of antibiotic-inactivating factor.

[5] = target: OXA-2 (Escherichia coli, UniProt P0A1V9); test: as above; assay type: cell-based; conditions: enzyme OXA-2; indirect method
Procedure: as §3

[6] = target: OXA-5 (Pseudomonas aeruginosa, UniProt Q00982); test: as above; assay type: cell-based; conditions: enzyme OXA-5; indirect method
Procedure: as §3

[7] = test system: TEM-46; assay type: cell-based; conditions: enzyme TEM-46; indirect method
Procedure: as §3

[8] = test system: Klebsiella spp. isolates; test: Antimicrobial susceptibility by NCCLS microdilution (MIC); assay type: cell-based
Procedure: Thirty recent isolates of Klebsiella spp. were collected from patients in United States hospitals.
Antimicrobial susceptibility was determined by NCCLS microdilution methodology using an investigational Microscan dehydrated panel.

[9] = test system: FOX-1; test: Indirect reagent disk test, antibiotic inactivation; assay type: cell-based; conditions: enzyme FOX-1; indirect method
Source text: (§4) A solution of equal parts of physiological saline and Tris EDTA (Sigma Chemicals) is made. • 2. A 20 microliter aliquot of the permeabilizing agent solution was placed onto a filter paper disk and allowed to dry. […] The filter paper disk impregnated with the permeabilizing agent was rehydrated with 20 microliters of sterile physiological saline. • 2. Using a cotton swab or loop, a test organism was rubbed onto the rehydrated disk. • 3. A Mueller Hinton Agar plate was inoculated with a 0.5 McFarland of E. coli ATCC 25922. • 4. A cefoxitin disk was placed onto the surface of the agar plate. The rehydrated disk inoculated with the test organism next was placed next to the cefoxitin disk, at a distance of about 0.5-1.0 mm. • 5. The agar plate was incubated at 37° C. for about 16 hours, or overnight. • 6. Distortion of the cefoxitin zone was interpreted as a positive result (i.e., the presence of an antibiotic-inactivating factor was detected), whereas lack of distortion of the cefoxitin zone was interpreted as a negative result.
as §3

[10] = test system: OXA-4; test: as above; assay type: cell-based; conditions: enzyme OXA-4; indirect method
Procedure: as §3

[11] = test system: E. coli MISC 208; test: Spectrophotometric hydrolysis assay of β-lactamase released by permeabilizing agent, cefaclor as substrate; assay type: cell-based
Procedure: (§2) H., et al., A.A.C. 1:283-288 (1972). […] The nitrocefin was prewarmed to 37° C.
The experiment in Example 1 was repeated using E. coli MISC 208 and cefaclor as substrate in the hydrolysis assays.

[12] = target: OXA-7 (Escherichia coli, UniProt P35695); test: Indirect reagent disk test, antibiotic inactivation; assay type: cell-based; conditions: enzyme OXA-7; indirect method
Source text: as §4
(§5) An indentation of a zone of inhibition around the antibiotic dish was interpreted as positive for presence of antibiotic-inactivating factor.

[13] = target: SHV-1 (Klebsiella pneumoniae, UniProt P0AD64); test: as above; assay type: cell-based; conditions: enzyme SHV-1; indirect method
Source text: as §4, §3

[14] = test system: E. coli V1104; test: Spectrophotometric hydrolysis assay of β-lactamase released by permeabilizing agent, nitrocefin as substrate; assay type: cell-based
Procedure: as §2
The experiment in Example 1 was repeated using E. coli V1104 to evaluate a variety of permeabilizing agents. Nitrocefan was the hydrolysis substrate.

[15] = test system: AmpC; conditions: enzyme AmpC; indirect method
Source text: as §4, §5

[16] = test system: LAT-1; test: Indirect reagent disk test, antibiotic inactivation; assay type: cell-based; conditions: enzyme LAT-1; indirect method; further: key: P, positive; N, negative; WP, weak positive (slight flattening); ?, results were questionable
Source text: as §1

[17] = test system: ACT-1; test: as above; assay type: cell-based; conditions: enzyme ACT-1; indirect method
Source text: as §4, §5

[18] = target: SHV-2 (Escherichia coli, UniProt P0A9Z7); test: as above; assay type: cell-based; conditions: enzyme SHV-2; indirect method
Source text: as §4, §3

[19] = target: SHV-4 (Klebsiella pneumoniae, UniProt P37323); test: as above; assay type: cell-based; conditions: enzyme SHV-4; indirect method
Source text: as §4, §3

[20] = test system: Class A Carbapenemases; test: Indirect TE disk test for detection of Class A Carbapenemases; assay type: cell-based; conditions: for CACs detected by indirect TE disk test: 21 CAC-producing strains, E. coli ATCC 25922 lawn; for False positive results in indirect TE disk test: strains producing non-CAC enzymes (metallo/OXA carbapenemases, AmpC, ESBLs)
Procedure: Methods: 21 strains that produced Class A Carbapenemases (“CACs”) comprising 12 Klebsiella pneumoniae, 5 Enterobacter cloacae, 2 Escherichia coli, and 2 Serratia marcescens; 10 strains of Acinetobacter baumannii, Pseudomonas aeruginosa, and S. marcescens that produced either a metallo-beta-lactamase or an OXA carbapenemases, and 11 strains of Enterobacteriaceae that produced either AmpC β-lactamases or ESBLs were investigated. The test was performed essentially as described in Example 5, with any changes noted below. The indirect test involved inoculation of the surface of a Mueller-Hinton (MH) agar plate with a lawn of E. coli ATCC 25922, not the test organism. Immediately prior to incubation, a premoistened TE disk was inoculated with several colonies of the test organism and placed face down on the MH agar adjacent to a disk containing one of the carbapenems, imipenem (IPM), meropenem (MER), or ertapenem (ERT). After overnight incubation, an indentation of the zone inhibition was interpreted as positive.

[21] = test system: β-lactamases of Klebsiella isolates (AmpC); test: Isoelectric focusing with inhibitor overlays; assay type: biochemical, Klebsiella spp.; conditions: nine of ten positive Klebsiella isolates; 1000 μM overlay
Procedure: Crude sonicates were subjected to analytical isoelectric focusing (IEF) on an ampholine polyacrylamide gel (pH range 3.5-9.5) on a flatbed apparatus (Multiphor LKB). Inhibitor overlays of the IEF gel were performed with 1000 μM clavulanic acid and cloxacillin.

[22] = test system: E. coli MISC 208 (which produces the extended spectrum β-lactamase SHV-2); conditions: 0° C.
Procedure: In this Example, E. coli MISC 208 (which produces the extended spectrum β-lactamase SHV-2) was used as a test organism and nitrocefin was the substrate in spectrophotometric hydrolysis assays. The E. coli strain was harvested directly into 100 microliters of Mueller Hinton Broth and mixed with 100 microliters of the permeabilizing agent.
In the hydrolysis assay, units of activity are calculated as:
Briefly, a 100 μM solution of nitrocefin was used as a substrate. The nitrocefin was prewarmed to 37° C. The hydrolysis assay was performed at 37° C. at a wavelength of 389.5 with an extinction coefficient of −0.024. An appropriate cuvette was filled with 0.9 ml of the prewarmed nitrocefin substrate and 100 ul of permeabilized bacterial suspension was added. The contents of the cuvette were immediately mixed by inversion and the cuvette was placed in a spectrophotometer. Absorbance was assayed at 5-second intervals for up to 5 minutes with the 37° C. temperature maintained by means of a circulating water bath that warmed the cuvette block. When the assay was complete, the activity was calculated according to the above formula.

Sequence of L-1 (P52700 34-290): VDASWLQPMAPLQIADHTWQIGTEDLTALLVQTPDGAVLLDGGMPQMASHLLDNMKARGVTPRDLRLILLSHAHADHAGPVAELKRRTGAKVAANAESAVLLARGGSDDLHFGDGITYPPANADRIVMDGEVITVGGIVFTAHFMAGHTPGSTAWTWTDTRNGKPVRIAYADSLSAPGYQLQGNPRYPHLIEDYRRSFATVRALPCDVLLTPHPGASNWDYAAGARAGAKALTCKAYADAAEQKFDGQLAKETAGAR
Sequence of OXA-3 (Q51429 22-275): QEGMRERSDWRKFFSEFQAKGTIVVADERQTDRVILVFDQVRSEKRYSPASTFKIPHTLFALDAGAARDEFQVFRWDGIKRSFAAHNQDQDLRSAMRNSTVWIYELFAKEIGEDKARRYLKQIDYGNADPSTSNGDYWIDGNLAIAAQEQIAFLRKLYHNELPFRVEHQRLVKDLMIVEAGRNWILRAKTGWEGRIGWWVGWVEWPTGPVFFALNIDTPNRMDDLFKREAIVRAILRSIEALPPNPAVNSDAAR
Sequence of OXA-5 (Q00982 20-267): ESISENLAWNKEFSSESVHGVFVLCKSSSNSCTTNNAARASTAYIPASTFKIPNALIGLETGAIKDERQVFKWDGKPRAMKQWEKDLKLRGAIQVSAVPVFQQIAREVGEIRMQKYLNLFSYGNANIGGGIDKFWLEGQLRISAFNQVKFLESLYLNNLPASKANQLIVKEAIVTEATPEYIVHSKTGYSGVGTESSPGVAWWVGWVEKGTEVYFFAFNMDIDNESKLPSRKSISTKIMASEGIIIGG
Sequence of OXA-2 (P0A1V9 22-275): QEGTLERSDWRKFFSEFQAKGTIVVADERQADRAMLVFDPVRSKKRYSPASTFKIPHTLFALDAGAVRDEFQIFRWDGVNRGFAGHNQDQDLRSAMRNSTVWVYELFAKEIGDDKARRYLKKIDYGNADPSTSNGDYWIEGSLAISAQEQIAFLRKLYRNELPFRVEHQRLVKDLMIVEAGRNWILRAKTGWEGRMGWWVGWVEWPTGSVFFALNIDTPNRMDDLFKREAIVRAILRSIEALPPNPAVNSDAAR
Sequence of PSE-1 (Q03170 18-288): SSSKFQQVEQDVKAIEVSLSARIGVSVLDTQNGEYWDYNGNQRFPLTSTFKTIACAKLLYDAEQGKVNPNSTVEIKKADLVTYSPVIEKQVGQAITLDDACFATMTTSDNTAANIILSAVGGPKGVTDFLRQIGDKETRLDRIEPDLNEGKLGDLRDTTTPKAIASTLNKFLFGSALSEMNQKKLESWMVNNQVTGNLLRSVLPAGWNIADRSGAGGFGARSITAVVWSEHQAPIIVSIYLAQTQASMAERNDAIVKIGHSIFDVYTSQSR
Sequence of SHV-1 (P0AD64 22-286): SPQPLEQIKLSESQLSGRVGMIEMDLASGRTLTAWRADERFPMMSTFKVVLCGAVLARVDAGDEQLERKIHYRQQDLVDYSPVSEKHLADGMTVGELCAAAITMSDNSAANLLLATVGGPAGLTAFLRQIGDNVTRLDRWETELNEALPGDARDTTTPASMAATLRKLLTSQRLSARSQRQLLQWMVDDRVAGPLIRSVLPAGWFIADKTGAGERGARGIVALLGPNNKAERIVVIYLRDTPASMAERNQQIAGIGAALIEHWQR
Sequence of SHV-4 (P37323 whole entry): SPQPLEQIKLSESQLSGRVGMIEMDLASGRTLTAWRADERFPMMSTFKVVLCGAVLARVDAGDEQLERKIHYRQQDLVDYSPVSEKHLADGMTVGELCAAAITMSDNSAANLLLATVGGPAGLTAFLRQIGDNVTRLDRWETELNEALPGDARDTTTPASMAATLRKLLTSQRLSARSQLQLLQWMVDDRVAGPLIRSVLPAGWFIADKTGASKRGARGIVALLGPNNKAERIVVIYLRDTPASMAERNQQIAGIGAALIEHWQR
Sequence of SHV-2 (P0A9Z7 22-286): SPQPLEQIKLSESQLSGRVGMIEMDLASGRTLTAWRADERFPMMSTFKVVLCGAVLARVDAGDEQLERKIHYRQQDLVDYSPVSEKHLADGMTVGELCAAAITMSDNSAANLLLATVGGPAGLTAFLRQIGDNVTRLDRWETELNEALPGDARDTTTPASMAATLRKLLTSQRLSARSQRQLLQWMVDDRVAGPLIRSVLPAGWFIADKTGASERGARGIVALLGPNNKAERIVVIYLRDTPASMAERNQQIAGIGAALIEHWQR
Sequence of OXA-7 (P35695 21-266): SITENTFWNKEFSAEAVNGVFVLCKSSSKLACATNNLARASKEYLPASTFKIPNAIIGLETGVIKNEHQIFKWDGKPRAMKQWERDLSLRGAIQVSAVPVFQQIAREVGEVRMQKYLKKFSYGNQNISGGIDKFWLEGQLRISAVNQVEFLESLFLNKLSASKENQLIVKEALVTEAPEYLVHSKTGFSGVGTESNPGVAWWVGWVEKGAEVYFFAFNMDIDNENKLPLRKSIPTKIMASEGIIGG

Compound | Reagent disk test result (indentation of inhibition zone = antibiotic inactivation) [1] | Reagent disk test result (indentation of inhibition zone = antibiotic inactivation) [2] | Reagent disk test result (indentation of inhibition zone = antibiotic inactivation) [3] | Reagent disk test result (indentation of inhibition zone = antibiotic inactivation) [4] | Reagent disk test result (indentation of inhibition zone = antibiotic inactivation) [5] | Reagent disk test result (indentation of inhibition zone = antibiotic inactivation) [6] | Reagent disk test result (indentation of inhibition zone = antibiotic inactivation) [7] | Reagent disk test result (indentation of inhibition zone = antibiotic inactivation) [10] | other results
CO/N=C(\C(=O)N[C@@H]1C(=O)N2C(C(=O)O)=C(COC(C)=O)CS[C@H]12)c1csc(N)n1 [CTX, cefotaxime] | N | N | N | WP? | N | N | N | – | –
C[C@@H](O)[C@H]1C(=O)N2C(C(=O)O)=C(SCCN=CN)C[C@H]12 [IPM, imipenem] | – | – | – | N | – | – | N | N | MIC ([8]; the one positive Klebsiella isolate producing a carbapenem-hydrolyzing enzyme, read-out: MIC): 64 µg/mL (≈ 214 µM); Reagent disk test result (indentation of inhibition zone = antibiotic inactivation) [9]: N
CO/N=C(\C(=O)N[C@@H]1C(=O)N2C(C(=O)O)=C(CSc3nc(=O)c(O)nn3C)CS[C@H]12)c1csc(N)n1 [CRO, ceftriaxone] | N | N | N | – | N | N | – | N | –
benzalkonium chloride | – | – | – | – | – | – | – | – | Units of β-lactamase Activity (Cefaclor as substrate) ([11]; agent 200 μg/ml): 16
CC(C)(O/N=C(\C(=O)N[C@@H]1C(=O)N2C(C(=O)[O-])=C(C[n+]3ccccc3)CS[C@H]12)c1csc(N)n1)C(=O)O [Ceftazidime, ceftazidime] | N | N | N | N | N | N | – | N | Reagent disk test result (indentation of inhibition zone = antibiotic inactivation) [12]: N; Reagent disk test result (indentation of inhibition zone = antibiotic inactivation) [9]: N; Reagent disk test result (indentation of inhibition zone = antibiotic inactivation) [13]: N; Units of β-lactamase Activity (Nitrocefin as substrate) [14]: 196
C[C@H]1[C@H](NC(=O)/C(=N\OC(C)(C)C(=O)O)c2csc(N)n2)C(=O)N1S(=O)(=O)O [Aztreonam, aztreonam] | N | N | N | N | N | N | – | N | Reagent disk test result (indentation of inhibition zone = antibiotic inactivation) [15]: N; Reagent disk test result (indentation of inhibition zone = antibiotic inactivation) [16]: N; Reagent disk test result (indentation of inhibition zone = antibiotic inactivation) [17]: N; Reagent disk test result (indentation of inhibition zone = antibiotic inactivation) [9]: N; Reagent disk test result (indentation of inhibition zone = antibiotic inactivation) [13]: N; Units of β-lactamase Activity (Nitrocefin as substrate) [14]: 210
C[C@@H](O)[C@H]1C(=O)N2C(C(=O)O)=C(S[C@@H]3CN[C@H](C(=O)N(C)C)C3)[C@H](C)[C@H]12 [MEM, meropenem] | N | – | N | N | WP? | N | N | N | Reagent disk test result (indentation of inhibition zone = antibiotic inactivation) [16]: N; Reagent disk test result (indentation of inhibition zone = antibiotic inactivation) [9]: N; Reagent disk test result (indentation of inhibition zone = antibiotic inactivation) [13]: N; Reagent disk test result (indentation of inhibition zone = antibiotic inactivation) [18]: N; Reagent disk test result (indentation of inhibition zone = antibiotic inactivation) [19]: N; CACs detected by indirect TE disk test [20]: 19/21; False positive results in indirect TE disk test [20]: no false positive results
CCN1CCN(C(=O)N[C@@H](C(=O)N[C@@H]2C(=O)N3[C@@H]2SC(C)(C)[C@@H]3C(=O)O)c2ccccc2)C(=O)C1=O [Piperacillin] | – | – | – | – | – | – | – | – | Units of β-lactamase Activity (Nitrocefin as substrate) [14]: 202
CO[C@@]1(NC(=O)CSCC#N)C(=O)N2C(C(=O)O)=C(CSc3nnnn3C)CS[C@@H]21 [CMZ, cefmetazole] | – | P^m | – | – | – | – | N | – | –
Polymyxin B | – | – | – | – | – | – | – | – | Units of β-lactamase Activity (Cefaclor as substrate) ([11]; agent 10 μg/ml): 3.8; Units of β-lactamase Activity (Cefaclor as substrate) ([11]; agent 30 μg/ml): 15
CO[C@@]1(NC(=O)Cc2cccs2)C(=O)N2C(C(=O)O)=C(COC(N)=O)CS[C@@H]21 [FOX, cefoxitin] | – | N^n | N | N | – | N | N | N | MIC ([8]; thirty Klebsiella spp. isolates): ≥ 16 µg/mL; MIC ([8]; thirty isolates of Klebsiella spp., read-out: MIC): ≥ 16 µg/mL; Reagent disk test result (indentation of inhibition zone = antibiotic inactivation) [13]: N; Reagent disk test result (indentation of inhibition zone = antibiotic inactivation) [18]: N; Reagent disk test result (indentation of inhibition zone = antibiotic inactivation) [19]: N
CC1(C)S[C@@H]2[C@H](NC(=O)[C@H](N)c3ccccc3)C(=O)N2[C@H]1C(=O)O [AM, ampicillin] | – | – | N | – | – | – | – | – | –
Cc1onc(-c2ccccc2Cl)c1C(=O)N[C@@H]1C(=O)N2[C@@H]1SC(C)(C)[C@@H]2C(=O)O [cloxacillin] | – | – | – | – | – | – | – | – | Inhibition of β-lactamases (pIs 7.2, 7.7 or ≧9.0) in IEF inhibitor overlay [21]: inhibited
NC(CO)(CO)CO [Tris] | – | – | – | – | – | – | – | – | Units of β-lactamase Activity (Nitrocefin as substrate) [22]: 41
C[C@@H](O)[C@H]1C(=O)N2C(C(=O)O)=C(S[C@@H]3CN[C@H](C(=O)Nc4cccc(C(=O)O)c4)C3)[C@H](C)[C@H]12 [ERT, ertapenem] | – | – | – | – | – | – | – | – | CACs detected by indirect TE disk test [20]: all; False positive results in indirect TE disk test [20]: no false positive results
